Target: IMPDH human type II (Homo sapiens, UniProt P12268)
Assay: IMPDH Activity Inhibition Assay
Type: biochemical
Conditions: spectrophotometric NADH formation at 340 nm, 37° C., tight-binding equation of Henderson
Experimental: IMP dehydrogenase activity was assayed following an adaptation of the method first reported by Magasanik. [B. Magasanik et al., J. Biod. Chem., 226, p. 339 (1957), the disclosure of which is herein incorporated by reference]. Enzyme activity was measured spectrophotometrically, by monitoring the increase in absorbance at 340 nm due to the formation of NADH (ε340 is 6220 M^−1 cm^−1). The reaction mixture contained 0.1 M Tris pH 8.0, 0.1 M KCl, 3 mM EDTA, 2 mM DTT, […] and enzyme (IMPDH human type II) at a concentration of 15 to 50 nM. This solution is incubated at 37° C. for 10 minutes. The reaction is started by adding NAD to a final concentration of […] and the initial rate is measured by following the linear increase in absorbance at 340 nm for 10 minutes. For reading in a standard spectrophotometer (path length 1 cm) the final volume in the cuvette is 1.0 ml. The assay has also been adapted to a 96 well microtiter plate format; in this case the concentrations of all the reagents remain the same and the final volume is decreased to 200 μl.
For the analysis of inhibitors, the compound in question is dissolved in DMSO to a final concentration of 20 mM and added to the initial assay mixture for preincubation with the enzyme at a final volume of 2-5% (v/v). The reaction is started by the addition of NAD, and the initial rates measured as above. Ki determinations are made by measuring the initial, velocities in the presence of varying amounts of inhibitor and fitting the data using the tight-binding equation of Henderson (Henderson, P. J. F. (1972) Biochem. J. 127, 321].

`COc1cc2c(cc1NC(=O)c1cc3ccccc3cc1O)oc1ccccc12` [Compound 172] and `COc1ccccc1NC(=O)c1cc2ccccc2cc1O` [Compound 100] cannot be ordered by Ki: less than 10 µM for the first, less than 10 µM for the second.

`COc1ccc(-c2ccccc2)cc1NC(=O)c1cc2ccccc2cc1O` [Compound 154] and `COc1ccc(C(C)(C)C)cc1NC(=O)c1cc2ccccc2cc1O` [Compound 177] fall in the same range of Ki: 10 to 20 µM for the first, 10 to 20 µM for the second.

`COc1ccc(OC)c(S(=O)(=O)Nc2ccccc2Cl)c1` [Compound 315] and `COc1ccc(OC)c(S(=O)(=O)Nc2ccccc2[N+](=O)[O-])c1` [Compound 317] fall in the same range of Ki: 10 to 20 µM for the first, 10 to 20 µM for the second.

`Cc1ccc(C(=O)Nc2ccccc2O)c(O)c1` [Compound 199] and `O=C(Nc1ccccc1O)c1ccc2ccccc2c1O` [Compound 192] cannot be ordered by Ki: greater than 20 µM for the first, greater than 20 µM for the second.

`CCOc1cccc(NC(=O)c2cc3ccccc3cc2O)c1` [Compound 168] and `O=C(Nc1cccc(F)c1)c1cc2ccccc2cc1O` [Compound 163] fall in the same range of Ki: 10 to 20 µM for the first, 10 to 20 µM for the second.

`O=C(Nc1ccccc1C(F)(F)F)c1cc2ccccc2cc1O` [Compound 128] and `O=C(Nc1ccccc1OC(F)(F)F)c1cc2ccccc2cc1O` [Compound 135] fall in the same range of Ki: 10 to 20 µM for the first, 10 to 20 µM for the second.

First: COc1cc(OC)c(NC(=O)c2cc3ccccc3cc2O)cc1Cl [Compound 171]
Second: COc1cc(NC(=O)c2cc3ccccc3cc2O)c(OC)cc1Cl [Compound 170]
The Ki of the first is higher: 10 to 20 µM for the first, less than 10 µM for the second.

`COc1ccc(Br)cc1S(=O)(=O)Nc1cc2ccccc2cc1O` [Compound 319] and `COc1ccc(Br)cc1S(=O)(=O)Nc1ccccc1O` [Compound 323] fall in the same range of Ki: 10 to 20 µM for the first, 10 to 20 µM for the second.

`CCC(=O)Oc1cc2ccc(Br)cc2cc1C(=O)Nc1ccccc1OC` [Compound 127] and `C=CCOc1cc2ccc(Br)cc2cc1C(=O)Nc1ccccc1OC` [Compound 140] cannot be ordered by Ki: less than 10 µM for the first, less than 10 µM for the second.

`CCS(=O)(=O)c1ccc(OC)c(NC(=O)c2cc3ccccc3cc2O)c1` [Compound 159] and `COc1ccc(S(=O)(=O)C(F)F)cc1NC(=O)c1cc2ccccc2cc1O` [Compound 160] fall in the same range of Ki: 10 to 20 µM for the first, 10 to 20 µM for the second.

`CCCC(=O)Oc1cc2ccccc2cc1C(=O)Nc1ccccc1OC` [Compound 101] and `CCCC(=O)Oc1cc2ccccc2cc1C(=O)Nc1ccc(C)cc1` [Compound 118] fall in the same range of Ki: 10 to 20 µM for the first, 10 to 20 µM for the second.

`COc1ccc(OC)c(S(=O)(=O)Nc2cccc(Br)c2)c1` [Compound 313] and `COc1ccc(OC)c(S(=O)(=O)NCc2c(F)cccc2Cl)c1` [Compound 314] fall in the same range of Ki: 10 to 20 µM for the first, 10 to 20 µM for the second.

`O=C(Nc1ccccc1Oc1ccccc1)c1ccc2ccccc2c1O` [Compound 193] and `COc1ccccc1NC(=O)c1ccc2ccccc2c1O` [Compound 146] fall in the same range of Ki: 10 to 20 µM for the first, 10 to 20 µM for the second.

`COc1ccc(C)cc1NC(=O)c1ccc(C)cc1O` [Compound 198] and `COc1ccc(C)cc1NC(=O)c1ccccc1OC` [Compound 194] cannot be ordered by Ki: greater than 20 µM for the first, greater than 20 µM for the second.

`COc1ccccc1NS(=O)(=O)c1cc(Cl)cc(Cl)c1O` [Compound 321] and `COc1ccccc1NC(=O)c1cccc(OC)c1O` [Compound 157] fall in the same range of Ki: 10 to 20 µM for the first, 10 to 20 µM for the second.

`COc1ccc(NC(=O)c2cc3ccccc3cc2O)c(OC)c1` [Compound 186] and `COc1cc(NC(=O)c2cc3ccccc3cc2O)ccc1C#N` [Compound 125] fall in the same range of Ki: 10 to 20 µM for the first, 10 to 20 µM for the second.

First: COc1cc(NC(=O)c2cccc(CCNC(=O)O[C@H]3CCOC3)c2)ccc1-c1cnco1 [Compound 109]
Second: O=C(Nc1cccc(Br)c1)c1cc2ccccc2cc1O [Compound 130]
The Ki of the first is lower: less than 10 µM for the first, 10 to 20 µM for the second. The first binds more tightly here.

Compared with `O=C(Nc1ccc(Cl)cc1)c1cc2ccccc2cc1O` [Compound 161], `O=C(Nc1ccc(F)cc1)Sc1ccccc1O` [Compound 303] is higher in Ki: less than 10 µM for the first, greater than 20 µM for the second. The first binds more tightly here.

In the case of `COc1ccccc1C(=O)Nc1ccccc1Oc1ccccc1` [Compound 196], the Ki is reported as 10 to 20 µM.

Reference: patent US6653309B1, “Inhibitors of IMPDH enzyme technical field of the invention” (Vertex Pharmaceuticals Incorporated, priority 1999, dated 2003)
